Reference: patent US4189426A, “Recombinant hormonal compositions and method” (Hoffmann-La Roche, Inc., priority 1978, dated 1980)
Where two headings read alike, the source gives them in different places. Starred links: 1 amine or outer side, 2 acyl side, 3 side chain; linkers in the order of their positions; H or OH if unused. Non-standard residues stand in square brackets, D forms with d. No end group written: not given here. Cys(Cam) = carboxamidomethylated cysteine, NC(=O)CSC[C@H](N[*:1])C(=O)[*:2]

What was measured:
rat tibia = rat tibia test (growth-promoting activity); assay type: in vivo; conditions: for Response (rat tibia test): Table 7, total dose of 600 μg in 4 days, means ± S.E., four test animals; for Rat tibia assay Response (tibia width): Table 1, mean ± standard error; for Rat tibia assay Response (tibia width) / Response (tibia width): four animals; for Response (tibia width): mean ± SEM; for growth-promoting activity, result in words: rat tibia test; for Relative potency to HGH: Tables 5 and 8
Procedure: The growth-promoting activity of PL-HGH, the unpurified recombinant of Example 1 (fraction IV), [Cys(Cam)^53 -HGH-(1-134)], [Cys(Cam)^165, 182, 189 -HGH-(141-191)] and saline control were determined by the rat tibia test of Greenspan et al, Endocrinology 45, 455 (1949) and by the local crop-sac assay in the pigeon according to Lyons, Proc. Soc. Exp. Biol. 35, 645 (1937) and Nicoll, Endocrinology 80, 641 (1967).
(§1) Plasmin fragments of reduced-carboxamidomethylation HGH and HCS were obtained as described above. Exclusion chromatography of the reaction mixture was performed at 22° C. on a Sephadex G-100 column (1.5×60 cm) in 0.01 M NH4 HCO3 of pH 8.4. For radioimmunoassay, the double-antibody procedure using a guinea pig antiserum to native HGH was performed. The growth-promoting activity was determined by the rat tibia test.

pigeon crop-sac = experiment: local crop-sac assay in the pigeon (prolactin / lactogenic activity); assay type: in vivo; conditions: for Pigeon crop-sac assay Response (dry mucosal weight): Table 1, four birds; for Pigeon crop-sac assay Response (dry mucosal weight) / Dry mucosal weight: mean ± standard error; for Dry mucosal weight: Table 4, pigeon crop-sac test; for Response (dry mucosal weight): Table 10, mean ± SEM, number of birds in parentheses
Procedure: The growth-promoting activity of PL-HGH, the unpurified recombinant of Example 1 (fraction IV), [Cys(Cam)^53 -HGH-(1-134)], [Cys(Cam)^165, 182, 189 -HGH-(141-191)] and saline control were determined by the rat tibia test of Greenspan et al, Endocrinology 45, 455 (1949) and by the local crop-sac assay in the pigeon according to Lyons, Proc. Soc. Exp. Biol. 35, 645 (1937) and Nicoll, Endocrinology 80, 641 (1967). Amino acid compositions of acid and carboxypeptidase hydrolysates were determined in an automatic amino acid analyzer (model 120B, Beckman Instruments). For the analysis of tryptophan, the methanesulfonic acid hydrolysates were used. Amino-terminal residue and sequence analyses were preformed by the dansyl-Edman procedure. Isoelectric focusing was carried out in 8 M urea. Prolactin activity was estimated by the pigeon crop-sac assay. Microcomplement fixation experiments were performed with rabbit antisera to HCS. The gel-double-diffusion technique of Ouchterlony was done using 1% agar in 0.01 M phosphate buffer of pH 7.5. Exclusion chromatography of the purified fragments or the recombinant was performed on a Sephadex G-100 column (1.5×60 cm; V0 =35 ml) in 10 mM NH4 HCO3 (pH 8.4) at 21°. Circular dichroism (CD) spectra were obtained by a spectropolarimeter (Cary model 60) equipped with a circular dichroism attachment (model 6002). Microcomplement fixation was performed with the guinea pig antiserum to ovine prolactin. The gel double-diffusion technique of Ouchterlony was carried out with 1% agar in 10 mM phosphate buffer (pH 7.5). The prolactin activity was estimated by the local crop-sac assay in the pigeon.

[1] = tested on: guinea pig antiserum to native HGH; experiment: radioimmunoassay, double-antibody procedure; assay type: binding
Procedure: as §1

rabbit antisera to HCS = experiment: microcomplement fixation; assay type: binding; conditions: antiserum to HCS at a dilution of 1:5500; HCS at 10 ng
Procedure: (§2) Amino acid compositions of acid and carboxypeptidase hydrolysates were determined in an automatic amino acid analyzer (model 120B, Beckman Instruments). For the analysis of tryptophan, the methanesulfonic acid hydrolysates were used. Amino-terminal residue and sequence analyses were preformed by the dansyl-Edman procedure. Isoelectric focusing was carried out in 8 M urea. Prolactin activity was estimated by the pigeon crop-sac assay. Microcomplement fixation experiments were performed with rabbit antisera to HCS. The gel-double-diffusion technique of Ouchterlony was done using 1% agar in 0.01 M phosphate buffer of pH 7.5.

antisera to HCS = experiment: gel double-diffusion technique of Ouchterlony; assay type: binding, rabbit; conditions: HCS 10 μg, small fragment 40 μg
Procedure: as §2

[2] = tested on: guinea pig antiserum to ovine prolactin; experiment: microcomplement fixation; assay type: binding; conditions: guinea pig antiserum to ovine prolactin at a dilution of 1:5000; 10 ng of the antigen
Procedure: (§3) Exclusion chromatography of the purified fragments or the recombinant was performed on a Sephadex G-100 column (1.5×60 cm; V0 =35 ml) in 10 mM NH4 HCO3 (pH 8.4) at 21°. Circular dichroism (CD) spectra were obtained by a spectropolarimeter (Cary model 60) equipped with a circular dichroism attachment (model 6002). Microcomplement fixation was performed with the guinea pig antiserum to ovine prolactin. The gel double-diffusion technique of Ouchterlony was carried out with 1% agar in 10 mM phosphate buffer (pH 7.5). The prolactin activity was estimated by the local crop-sac assay in the pigeon.

antiserum to prolactin = experiment: gel double-diffusion technique of Ouchterlony; assay type: binding
Procedure: as §3

Molecule: [Nle^170, Ala^165,182,189 ]-HGH-(140-191)
- Response (rat tibia test) (rat tibia): 197 ± 4.2 microns

Molecule: Cys(Cam)^53 -HGH-(1-134) [reference compound]
- Pigeon crop-sac assay Response (dry mucosal weight) (pigeon crop-sac; total dose 0.65 nmol): 9.6 ± 1.8 mg
- Pigeon crop-sac assay Response (dry mucosal weight) (pigeon crop-sac; total dose 1.95 nmol): 12.4 ± 2.7 mg
- prolactin (lactogenic) activity, result in words (pigeon crop-sac; pigeon crop-sac assay): only a very small fraction of the comparative biological activities of the native human growth hormone
- Relative potency to PLHGH (pigeon crop-sac; pigeon crop-sac assay, Tables 1 and 2): less than 1%
- Rat tibia assay Response (tibia width) (rat tibia; total dose 3.26 nmol): 207.2 ± 1.5 micra
- Rat tibia assay Response (tibia width) (rat tibia; total dose 9.78 nmol): 235.5 ± 1.5 micra
- Response (tibia width) (rat tibia; Table 5, total dose 150 μg): 231.2 ± 1.6 micrometers
- Response (tibia width) (rat tibia; Table 5, total dose 450 μg): 275.0 ± 3.8 micrometers
- Relative potency to PLHGH (rat tibia; rat tibia assay, Tables 1 and 2): 8%
- growth-promoting activity, result in words (rat tibia): only a very small fraction of the comparative biological activities of the native human growth hormone
- radioimmunoassay inhibition / cross-reaction compared with HGH, in words [1]: only a slight cross-reaction

Molecule: Cys (Cam)^53 -HCS-(1-133) [N]
- Dry mucosal weight (pigeon crop-sac; total dose 40 (mg)): 11.2 ± 0.7 mg
- Dry mucosal weight (pigeon crop-sac; total dose 120 (mg)): 12.0 ± 0.9 mg
- prolactin (lactogenic) activity, result in words (pigeon crop-sac; pigeon crop-sac assay): may have low activity but is much less than the native hormone
- Response (tibia width) (rat tibia; Table 5, total dose 300 μg): 185.5 ± 1.7 micrometers
- complement fixed (rabbit antisera to HCS): less than 10%
- precipitin reaction (antisera to HCS): weak precipitin line which showed non-identity with the native hormone

Molecule: Cys(Cam)^165,182,189 -HGH-(141-191) (QTYSKFDTNSHNDDALLKNYGLLY[Cys(Cam)]FRKDMDKVETFLRIVQ[Cys(Cam)]RSVEGS[Cys(Cam)]GF; UniProt P01241 167-217, looked up, fragment) [COOH-terminal plasmin fragment of reduced-carboxamidomethylated HGH, reference compound]
- Pigeon crop-sac assay Response (dry mucosal weight) (pigeon crop-sac; total dose 20.3 nmol): 13.4 ± 1.2 mg
- prolactin (lactogenic) activity, result in words (pigeon crop-sac; pigeon crop-sac assay): only a very small fraction of the comparative biological activities of the native human growth hormone
- Rat tibia assay Response (tibia width) (rat tibia; total dose 9.78 nmol): 186.7 ± 4.4 micra
- Response (rat tibia test) (rat tibia): 212 ± 7.3 microns
- growth-promoting activity, result in words (rat tibia; 182, 189 HGH-(141-191)]): only a very small fraction of the comparative biological activities of the native human growth hormone
- growth-promoting activity, result in words (rat tibia; listed as the 51 residue fragment): about nil

Molecule: [Nle^170, Ala^165,182,189 ]-HGH-(145-191)
- Response (rat tibia test) (rat tibia): 189.5 ± 7.5 microns

Molecule: [Cys(Cam)^53 ]-HGH(1-134) + [Nle^170, Ala^165, 182, 189 ]-HGH(145-191) [Recombinant IV]
- Response (tibia width) (rat tibia; Table 8, total dose 20 μg): 248.5 ± 7.7 micrometers
- Response (tibia width) (rat tibia; Table 8, total dose 60 μg): 297.2 ± 10.0 micrometers
- Relative potency to HGH (rat tibia; rat tibia assay): 113%

Molecule: [Cys(Cam)^53 -HGH(1-134)] + [Recombinant I, [Cys(Cam)^53 -HGH(1-134)] + [Cys(Cam^165,182,189 -HCS-(141-191)]]
- Response (tibia width) (rat tibia; Table 5, total dose 20 μg): 212.0 ± 4.7 micrometers
- Response (tibia width) (rat tibia; Table 5, total dose 60 μg): 259.2 ± 2.9 micrometers
- Relative potency to Cys(Cam)^53 HGH-(1-134) (rat tibia; rat tibia assay, Table 5): 491%
- Relative potency to HGH (rat tibia; rat tibia assay): 50%
- growth-promoting activity, result in words (rat tibia): significant growth-promoting activity
- radioimmunoassay inhibition / cross-reaction compared with HGH, in words [1]: at low concentrations gave nearly identical inhibition to that of HGH
- radioimmunoassay inhibition / cross-reaction compared with HGH, in words ([1]; listed as recombinant of Cys (Cam)^53 -HGH-(1-134) and Cys (Cam)^165, 182, 189 -HCS-(141-1)): nearly full immunoreactivity against the antiserum to HGH

Molecule: human growth hormone [HGH]
- Response (tibia width) (rat tibia; Table 5, total dose 20 μg): 242.8 ± 3.8 micrometers
- Response (tibia width) (rat tibia; Table 5, total dose 60 μg): 282.8 ± 1.5 micrometers
- Response (tibia width) (rat tibia; Table 8, total dose 20 μg): 245.0 ± 9.5 micrometers
- Response (tibia width) (rat tibia; Table 8, total dose 60 μg): 290.2 ± 2.9 micrometers

Molecule: [Lys^135,136,138, Glu^137,139, Nle^170,Ala^165,182,189 ]-HGH-(135-191)
- Response (rat tibia test) (rat tibia): 192 ± 3.5 microns

Molecule: Cys(Cam)^165, 182, 189, -HCS-141-191
- Dry mucosal weight (pigeon crop-sac; total dose 120 (mg)): 6.5 ± 1.4 mg
- complement fixed (rabbit antisera to HCS): less than 10%
- precipitin reaction (antisera to HCS): failed to give a precipitin reaction

Molecule: [Cys(Cam)HCS-(1-133)] + [Recombinant II, [Cys(Cam)HCS-(1-133)] + [Cys(Cam)^165,182,189 -HGH-(141-191)]]
- Response (tibia width) (rat tibia; Table 5, total dose 30 μg): 218.5 ± 9.8 micrometers
- Response (tibia width) (rat tibia; Table 5, total dose 90 μg): 229.0 ± 4.1 micrometers
- Relative potency to HGH (rat tibia; rat tibia assay): 10%
- growth-promoting activity, result in words (rat tibia): less active in comparison with that of I
- growth-promoting activity, result in words (rat tibia; listed as recombinant of Cys(Cam)^53 -HCS-(1-133) and Cys(Cam)^165, 182, 189 -HGH-(141-191)): measurable growth promoting activity but at a reduced level of potency than the aforesaid recombinants
- antigen concentration needed to give the same degree of inhibition, relative to HGH [1]: at least 30 times
- radioimmunoassay inhibition / cross-reaction compared with HGH, in words [1]: much less effective than HGH

Molecule: [Cys(Cam)^ 53 ]-HGH(1-134) + [Nle^170, Ala^165, 182, 189 ]-HGH(140-191) [Recombinant III]
- Response (tibia width) (rat tibia; Table 8, total dose 20 μg): 249.2 ± 9.2 micrometers
- Response (tibia width) (rat tibia; Table 8, total dose 60 μg): 286.0 ± 2.1 micrometers
- Relative potency to HGH (rat tibia; rat tibia assay): 100%

B1: Prolactin: prolactin isolated from sheep pituitary glands (protein, UniProt P01240 31-229, looked up)
Prolactin: TPVCPNGPGNCQVSLRDLFDRAVMVSHYIHNLSSEMFNEFDKRYAQGKGFITMALNSCHTSSLPTPEDKEQAQQTHHEVLMSLILGLLRSWNDPLYHLVTEVRGMKGVPDAILSRAIEIEEENKRLLEGMEMIFGQVIPGAKETEPYPVWSGLPSLQTKDEDARHSAFYNLLHCLRRDSSKIDTYLKLLNCRIIYNNNC
- Response (dry mucosal weight) (pigeon crop-sac; total dose 2 μg): 20.5 ± 0.9 mg
- Response (dry mucosal weight) (pigeon crop-sac; total dose 6 μg): 45.2 ± 3.1 mg
- complement fixed [2]: 98%
- precipitin line (antiserum to prolactin): single precipitin line

B2: human chorionic somatomammotropin (protein, UniProt P0DML2 27-217, looked up)
Chorionic somatomammotropin …: VQTVPLSRLFDHAMLQAHRAHQLAIDTYQEFEETYIPKDQKYSFLHDSQTSFCFSDSIPTPSNMEETQQKSNLELLRISLLLIESWLEPVRFLRSMFANNLVYDTSDSDDYHLLKDLEEGIQTLMGRLEDGSRRTGQILKQTYSKFDTNSHNHDALLKNYGLLYCFRKDMDKVETFLRMVQCRSVEGSCGF
notes: native human choriomammotropin hormone
- Dry mucosal weight (pigeon crop-sac; total dose 4 (mg)): 24.2 ± 2.9 mg
- Dry mucosal weight (pigeon crop-sac; total dose 12 (mg)): 30.5 ± 3.7 mg
- complement fixed (rabbit antisera to HCS): about 90%
- precipitin reaction (antisera to HCS): single sharp precipitin line
